This note sets out measurements from US9663565B2, “Insulinotropic peptide derivative with modified N-terminal charge” (HANMI PHARM. CO., LTD., priority 2013, dated 2017).

Data set [1] can be described thus: N-terminal charge at pH 7.4. In kind it is physicochemical.
For data set [2], the system named is GLP-1 receptor (hGLP-1R/GST). Description: Binding activity with the GLP-1 receptor by surface plasmon resonance (BIACORE 3000), 1:1 Langmuir fitting. On the set-up: species or system human. Conditions: SPR, hGLP-1R/GST immobilized to CM5 chip. An excerpt:
The expressed hGLP-1R/GST was immobilized to a CM5 chip by amine coupling. […].
A general note: In SPR one partner is held on a chip, and binding of the other changes the refractive index at the surface.

GLP-1 receptor (hGLP-1R/GST), sequence (P43220 24-139 limits assumed): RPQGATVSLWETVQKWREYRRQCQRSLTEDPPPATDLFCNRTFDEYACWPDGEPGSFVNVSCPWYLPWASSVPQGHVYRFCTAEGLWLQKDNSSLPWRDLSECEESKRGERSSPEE

One may read the Kd as the free concentration of one partner at which half of the binding sites on the other are occupied at equilibrium, for simple one-to-one binding. In the case of “beta-hydroxy imidazopropionyl-exendin-4 [HY-exendin-4]”, the “N-terminal charge at pH 7.4” value in data set [1] is on record as “Neutral”. Moreover, in data set [2], the Ka is given as 0.90 ± 0.07 1/Ms, ×10^5; binding was characterised by a dissociation constant (Kd) of 42.7 ± 4.1 nM; the kd is listed as 38.3 ± 1.92 1/s, ×10^4.

For the substance “desamino-histidyl-exendin-4 [DA-exendin-4]”, in data set [1], the “N-terminal charge at pH 7.4” value is “Neutral”. For the same substance, in data set [2], the Ka is 1.13 ± 0.08 1/Ms, ×10^5; the Kd was determined as 32.2 ± 1.89 nM; the kd was 36.5 ± 1.40 1/s, ×10^4.

As to DA-exendin-4-propyl-amide, the “N-terminal charge at pH 7.4” value in data set [1] is “Neutral”. Besides, in data set [2], the Ka was 1.04 ± 0.11 1/Ms, ×10^5; the Kd came out at 32.6 ± 4.17 nM; the kd is 33.5 ± 1.40 1/s, ×10^4.

imidazoacetyl-exendin-4 [CA-exendin-4]: in data set [1], the “N-terminal charge at pH 7.4” value is “Neutral”. In data set [2], the Ka is on record as 1.20 ± 0.11 1/Ms, ×10^5; the affinity, expressed as Kd, was 26.3 ± 2.08 nM; the kd is reported as 31.5 ± 0.56 1/s, ×10^4.
